Data as given in patent US20110251230A1, “THERAPEUTICS FOR NEUROLOGICAL DISORDERS” (UNIVERSITY OF SHEFFIELD, priority 2008, published 2011).
Structures can show the parent of a compound that is named as a salt. Where two headings read alike, the source gives them in different places.

Legend:
[1] = test system: NSC34 mouse motor neuronal cells; assay: NSC34 oxidative stress assay (serum withdrawal, DCF); details: for Maximal % reduction in Oxidative stress: NSC34, DCF fluorescence, negative = pro-oxidant; for Lowest dose with toxicity: NSC34
Description: (§1) A simple oxidative stress assay was used to determine whether preconditioning with NRF2-ARE inducing drugs could protect against a subsequent oxidative stress insult (serum withdrawal). The NSC34, C6 and 1321N1 cells were plated in 96 well tissue culture plates to achieve 30% confluency. […] Media was then replaced with serum free, phenol free media for 5 hrs. […] Cell survival assay was then performed on the cells as protection is measured as % reduction in DCF signal, therefore data points were excluded where a decrease in cell number was measured.
(§2) Briefly methylthiazolyldiphenyl-tetrazolium bromide (MTT) was added to the cells and a blank well to a final concentration 0.5 mg/ml and incubated at 37° C. for 1-3 hrs depending on the cell line used.

[2] = test system: NRF2-ARE pathway in the CHO 4× ARE-TK cell line; assay: ARE reporter assay in CHO 4×ARE-TK-GFP cell line (GFP induction, EthD1 toxicity); details: for maximal fold induction: read-out: Average fold GFP induction at maximal response
Description: Chinese Hamster Ovary (CHO), NSC34 mouse motor neuronal cells, C6 (rat) and 1321N1 (human) astrocytic lines were routinely maintained in DMEM supplemented with 10% FBS and penicillin/streptomycin. […] These plasmids were transfected into CHO, C6 and 1321N1 cell lines using Lipofectamine 2000 (Invitrogen) and following 10-14 days of selection in 0.5 mg/ml G418 they were expanded and selected for basal eGFP expression using fluorescence activated cell sorting (BD, FACSAria) with two sequential cell sorts for each cell line. These mixed populations of stable transfectants with basal eGFP expression were used in subsequent assays and designated 4×ARE-TK-GFP for the ARE containing line and TK-GFP for the control cell line. […]
Confluent cultures of 4×ARE-TK-GFP CHO or TK-GFP CHO expressing cells in 96 or 384-well tissue-culture plates were treated with drug (0.01-100 µM in triplicate) or vehicle (0.1-1% DMSO) in FCS-free DMEM in triplicate for 24 hours. The media was removed and replaced with the same volume of PBS containing 0.3 μM EthD1. […] Non-linear regression was used to fit a sigmoidal dose-response curve on a semi-Log plot to calculate the EC50 using GraphPad Prism (GraphPad Software). The reporter assay was conducted in a similar fashion in C6 and 1321N1 astrocyte cell lines stably transfected with the 4×ARE-TK-GFP and TK-GFP constructs except that Eth D1 was added directly in the media and read prior to washing the cells once and reading the […] signal. […]
The compounds were applied in triplicate to confluent cells in 96 well plates in serum free medium for 24 hours and the induction of GFP measured in a fluorescence plate reader. […]

[3] = test system: 1321N1 (human) astrocytic line; assay: 1321N1 oxidative stress assay (serum withdrawal, DCF); details: for Maximal % reduction in Oxidative stress: 1321N1, DCF fluorescence; for Lowest dose with toxicity: 1321N1; for IC50: 1321N1, 24 h pre-treatment, serum withdrawal, DCF
Description: as §1, §2

C6 (rat) astrocytic line = assay: C6 oxidative stress assay (serum withdrawal, DCF); details: for IC50: C6, 24 h pre-treatment, serum withdrawal, DCF; for Maximal % reduction in Oxidative stress: C6, DCF fluorescence; for Lowest dose with toxicity: C6
Description: as §1, §2

[4] = read-out: Average EC50, CHO 4×ARE-TK-GFP, GFP induction, 24 h
[5] = Cricetulus griseus, 24 h, read-out: Average EC50

3-alpha-hydroxygedinin
Maximal % reduction in Oxidative stress [1]: 14%
Average fold GFP induction at maximal response ([2]; CHO 4×ARE-TK-GFP, 24 h): 3.01 fold
Lowest dose with toxicity ([2]; CHO ARE reporter assay): 100 µM
Maximal % reduction in Oxidative stress [3]: 25%
IC50 (C6 (rat) astrocytic line): 3.22 µM
Maximal % reduction in Oxidative stress (C6 (rat) astrocytic line): 42%

3β hydroxydeoxydesacetoxy-7-oxogedunin
Lowest dose with toxicity [1]: 3 µM
Maximal % reduction in Oxidative stress [1]: 0%
Average fold GFP induction at maximal response ([2]; CHO 4×ARE-TK-GFP, 24 h): 2.55 fold
Lowest dose with toxicity ([2]; CHO ARE reporter assay): 30 µM
EC50 [2, 4]: 8.71 µM
Lowest dose with toxicity [3]: none
IC50 [3]: 3.96 µM
Maximal % reduction in Oxidative stress [3]: 62%
Lowest dose with toxicity (C6 (rat) astrocytic line): none
IC50 (C6 (rat) astrocytic line): 3.07 µM
Maximal % reduction in Oxidative stress (C6 (rat) astrocytic line): 67%

Cc1[nH]c2ccccc2c1CN(C)C [2 methyl gramine]
Lowest dose with toxicity [1]: 3 µM
Maximal % reduction in Oxidative stress [1]: −30%
Average fold GFP induction at maximal response ([2]; CHO 4×ARE-TK-GFP, 24 h): 2.27 fold
Lowest dose with toxicity ([2]; CHO ARE reporter assay): 100 µM
EC50 [2, 4]: 3 µM
Lowest dose with toxicity [3]: none
IC50 [3]: 11 µM
Maximal % reduction in Oxidative stress [3]: 36%
Lowest dose with toxicity (C6 (rat) astrocytic line): none
IC50 (C6 (rat) astrocytic line): 32 µM
Maximal % reduction in Oxidative stress (C6 (rat) astrocytic line): 36%

COc1cc(O)c(C)c(O)c1 [2,6-dihydroxy-4-methoxytoluene]
Lowest dose with toxicity [1]: none
Lowest dose with toxicity ([2]; Chinese hamster, 24 h): 100 µM
maximal fold induction ([2]; Cricetulus griseus, 24 h): 3.05
Lowest dose with toxicity [3]: none
Lowest dose with toxicity (C6 (rat) astrocytic line): 10 µM

COc1cccc(O)c1O [3 methoxycatechol]
Lowest dose with toxicity [1]: 0.3 µM
Lowest dose with toxicity ([2]; Chinese hamster, 24 h): 100 µM
maximal fold induction ([2]; Cricetulus griseus, 24 h): 3.28
Lowest dose with toxicity [3]: none
Lowest dose with toxicity (C6 (rat) astrocytic line): 10 µM

Cc1cc(O)c(C)c(O)c1C(=O)O [3 methylorsellinic acid]
Lowest dose with toxicity [1]: 0.3 µM
Lowest dose with toxicity ([2]; Chinese hamster, 24 h): 100 µM
maximal fold induction ([2]; Cricetulus griseus, 24 h): 2.87
Lowest dose with toxicity [3]: none
Lowest dose with toxicity (C6 (rat) astrocytic line): none

CC(=O)Oc1ccc(O)cc1 [4 acetoxyphenol]
Lowest dose with toxicity [1]: none
Lowest dose with toxicity ([2]; Chinese hamster, 24 h): 100 µM
maximal fold induction ([2]; Cricetulus griseus, 24 h): 2.78
Lowest dose with toxicity [3]: none
Lowest dose with toxicity (C6 (rat) astrocytic line): none

O=C(/C=C/c1ccc(O)cc1)c1ccccc1 [4 hydroxychalcone]
Lowest dose with toxicity ([2]; CHO ARE reporter assay): None
EC50 ([2]; Cricetulus griseus, 24 h, read-out: Average EC50, CHO 4×ARE-TK-GFP, GFP induction, 24 h): 3.53 µM
maximal fold induction ([2]; Cricetulus griseus, 24 h): 1.88

COc1ccc(/C=C/C(=O)c2ccccc2)cc1 [4 methoxychalcone]
Lowest dose with toxicity [1]: none
Lowest dose with toxicity ([2]; CHO ARE reporter assay): 100 µM
EC50 [2, 5]: 15 µM
maximal fold induction ([2]; Cricetulus griseus, 24 h): 2.13
Lowest dose with toxicity [3]: none
IC50 [3]: 3.6 µM
Lowest dose with toxicity (C6 (rat) astrocytic line): none
IC50 (C6 (rat) astrocytic line): 3.55 µM

C=CC(C1=CC(=O)C(OC)=CC1=O)c1ccccc1 (stereo not shown) [4-Methoxydalbergione]
Lowest dose with toxicity [1]: none
Maximal % reduction in Oxidative stress [1]: −44%
Average fold GFP induction at maximal response ([2]; CHO 4×ARE-TK-GFP, 24 h): 2.11 fold
Lowest dose with toxicity ([2]; CHO ARE reporter assay): 100 µM
EC50 [2, 4]: 11 µM
Lowest dose with toxicity [3]: none
Maximal % reduction in Oxidative stress [3]: 43%
Lowest dose with toxicity (C6 (rat) astrocytic line): none
IC50 (C6 (rat) astrocytic line): 2.5 µM
Maximal % reduction in Oxidative stress (C6 (rat) astrocytic line): 14%

CCc1cccc(CC)c1N(COC)C(=O)CCl [Alachlor]
Lowest dose with toxicity (C6 (rat) astrocytic line): none

COc1cc(O)cc(OC)c1OC [Antiarol]
Lowest dose with toxicity [1]: 10 µM
Lowest dose with toxicity ([2]; Chinese hamster, 24 h): 100 µM
maximal fold induction ([2]; Cricetulus griseus, 24 h): 1.64
Lowest dose with toxicity [3]: none
Lowest dose with toxicity (C6 (rat) astrocytic line): 10 µM

CN1CCc2cccc3c2[C@H]1Cc1ccc(O)c(O)c1-3 [Apomorphine hydrochloride, reference compound]
Lowest dose with toxicity [1]: 10 µM
Lowest dose with toxicity ([2]; Chinese hamster, 24 h): 100 µM
maximal fold induction ([2]; Cricetulus griseus, 24 h): 1.9
Lowest dose with toxicity [3]: none
Lowest dose with toxicity (C6 (rat) astrocytic line): none

S=C=NCc1ccccc1 [Benzyl Isothiocyanate]
Lowest dose with toxicity [1]: none
Lowest dose with toxicity ([2]; CHO ARE reporter assay): None
maximal fold induction ([2]; Cricetulus griseus, 24 h): 1.81
Lowest dose with toxicity [3]: none
Lowest dose with toxicity (C6 (rat) astrocytic line): none

ClC1=C(Cl)C2(Cl)C3C(Cl)C(Cl)CC3C1(Cl)C2(Cl)Cl (stereo not shown) [Chlordane]
Lowest dose with toxicity [1]: 3 µM
Lowest dose with toxicity ([2]; CHO ARE reporter assay): 100 µM
EC50 [2, 5]: 9.18 µM
maximal fold induction ([2]; Cricetulus griseus, 24 h): 1.56
Lowest dose with toxicity [3]: none
Lowest dose with toxicity (C6 (rat) astrocytic line): none
IC50 (C6 (rat) astrocytic line): 3.57 µM

CC1=C2C(=CO[C@H](C)[C@H]2C)C(O)=C(C(=O)O)C1=O [Citrinin]
Lowest dose with toxicity [1]: none
Lowest dose with toxicity ([2]; CHO ARE reporter assay): 30 µM
EC50 [2, 5]: 4.1 µM
maximal fold induction ([2]; Cricetulus griseus, 24 h): 3.26
Lowest dose with toxicity [3]: none
IC50 [3]: 0.338 µM
Lowest dose with toxicity (C6 (rat) astrocytic line): none
IC50 (C6 (rat) astrocytic line): 20 µM

C=CC(C1=CC(=O)C=CC1=O)c1ccccc1 (stereo not shown) [Dalbergione]
Lowest dose with toxicity [1]: none
Lowest dose with toxicity ([2]; Chinese hamster, 24 h): 30 µM
maximal fold induction ([2]; Cricetulus griseus, 24 h): 2.09
Lowest dose with toxicity [3]: none
Lowest dose with toxicity (C6 (rat) astrocytic line): none

CC1(C)C(=O)C=C[C@]2(C)[C@H]3CC[C@@]4(C)[C@H](c5ccoc5)OC(=O)[C@H]5O[C@]54[C@]3(C)[C@H](O)C[C@@H]12 [Deacetylgedunin]
Lowest dose with toxicity [1]: none
Lowest dose with toxicity ([2]; CHO ARE reporter assay): 30 µM
EC50 [2, 5]: 3.5 µM
maximal fold induction ([2]; Cricetulus griseus, 24 h): 3.05
Lowest dose with toxicity [3]: 10 µM
IC50 [3]: 2.37 µM
Lowest dose with toxicity (C6 (rat) astrocytic line): none
IC50 (C6 (rat) astrocytic line): 5.36 µM

CC1(C)C2CC(=O)O[C@@]3(C)C4=CC(=O)O[C@@H](c5ccoc5)[C@]4(C)CCC3[C@@]2(C)C=C[C@H]1O (stereo partly shown) [Deoxyandirobin lactone]
Lowest dose with toxicity [1]: none
Lowest dose with toxicity ([2]; Chinese hamster, 24 h): 100 µM
maximal fold induction ([2]; Cricetulus griseus, 24 h): 3.03
Lowest dose with toxicity [3]: none
Lowest dose with toxicity (C6 (rat) astrocytic line): none

O=c1c2ccccc2[se]n1-c1ccccc1 [Ebselen, reference compound]
Lowest dose with toxicity [1]: none
Lowest dose with toxicity ([2]; Chinese hamster, 24 h): 100 µM
maximal fold induction ([2]; Cricetulus griseus, 24 h): 2.81
Lowest dose with toxicity [3]: none
Lowest dose with toxicity (C6 (rat) astrocytic line): none

C=C(CC)C(=O)c1ccc(OCC(=O)O)c(Cl)c1Cl [Ethacrynic acid, reference compound]
Lowest dose with toxicity [1]: 10 µM
Lowest dose with toxicity ([2]; Chinese hamster, 24 h): 100 µM
IC50 (C6 (rat) astrocytic line): 3.01 µM

CC(=O)O[C@@H]1CC2C(C)(C)C=CC(=O)[C@]2(C)C2CC[C@@]3(C)[C@H](c4ccoc4)OC(=O)C4OC43[C@@]21C (stereo partly shown) [Isogedunin]
Lowest dose with toxicity [1]: 1 µM
Maximal % reduction in Oxidative stress [1]: 0%
Average fold GFP induction at maximal response ([2]; CHO 4×ARE-TK-GFP, 24 h): 3.11 fold
Lowest dose with toxicity ([2]; CHO ARE reporter assay): None
EC50 [2, 4]: 550 µM
Lowest dose with toxicity [3]: none
Maximal % reduction in Oxidative stress [3]: 10%

O=C(/C=C/c1ccc(O)cc1)c1ccc(O)cc1O [Isoliquintigenin, Isoliquiritigenin]
Lowest dose with toxicity [1]: 1 µM
Lowest dose with toxicity ([2]; Chinese hamster, 24 h): 30 µM
maximal fold induction ([2]; Cricetulus griseus, 24 h): 2.58
Lowest dose with toxicity [3]: none
Lowest dose with toxicity (C6 (rat) astrocytic line): none
IC50 (C6 (rat) astrocytic line): ~28 µM

CC(C)(C)c1cc(O)ccc1O [tBHQ, tert-Butyl Hydroquinone, reference compound]
toxicity at concentrations higher than peak expression [2]: signs of toxicity
fluorescence in the control TK-GFP cell line ([2]; control TK-GFP CHO cell line): No increase in fluorescence
concentration of peak ARE activation (GFP expression) ([2]; narrow window, 24 h, serum free medium): 10 µM
